In PubChem BioAssay AID2305 (GlaxoSmithKline (GSK), 2010) one finds IC50 data, which are given here for 62 compounds.

“And” between values parts separate entries of the source, which are not always exact repeats. Equal entries are not always repeated.

The test system of this experiment is P. falciparum 3D7 growth, pLDH absorbance. Put plainly: blood-stage malaria parasite growth potency – strain 3D7, dose response (AID 2305).
As a reminder, the IC50 is the concentration needed to halve the response being measured. A high value points to lower potency. `CCCCNCc1cc(Cl)c2ccccc2c1O` had an IC50 of 460 nM.

For the compound `CCC(C)(C)c1ccc2nc(N)nc(N)c2c1C`, the IC50 amounted to 10 nM.

Take `O=[N+]([O-])c1cccc(C(Nc2ccccn2)c2ccc3cccnc3c2O)c1` (configuration not stated): the IC50 amounted to 1330 nM.

`CN1CCC(COc2ccc(CN3CCC(NC(=O)c4cccc(Cl)c4)CC3)cc2)CC1` had a 50% inhibitory concentration (IC50) of 890 nM.

Take `CC(C)N1CCC(N(Cc2ccc(-c3ccc(C(F)(F)F)cc3)cc2)C(=O)Cn2c(SCc3cccc(F)c3F)cc(=O)c3c2CCC3)CC1`: the IC50 turned out to be 1160 nM.

Take `COc1ccc(-c2ccccc2)cc1NC(=S)NC1CCC(CN2CCC(c3c[nH]c4ccccc34)CC2)CC1` (configuration not stated): the half-inhibitory concentration (IC50) was 650 nM and 740 nM.

In turn, `Cc1nc(N)nc(N)c1OCc1cccc2ccccc12` showed an IC50 of 70 nM.

With `O=C(c1ccc(O)c(-c2cc(Cl)cc(Cl)c2)c1)N1CCCC1`, the IC50 turned out to be 1000 nM.

As to `CNC(=O)NC1=NC(C)(C)N(OCc2ccc(Cl)c(Cl)c2)C(NC(=O)NC)=N1`, the IC50 is 600 nM.

For the compound `Cc1cc(N[C@@H](Cc2ccccc2)C(=O)NCCc2ccccc2)nc(NCCc2ccccc2)n1`, the IC50 is 850 nM.

Compound `CCCc1ccc(C2CCN(CCCCNC(=O)c3ccc(NC(=O)c4ccc(Cl)cc4)cc3)CC2)cc1` gave a half-maximal inhibitory concentration (IC50) of 630 nM.

Take `CC(C)(CC1CCCCC1)NC(=O)[C@H](CC1CCCCC1)Nc1ccc(C#N)c2ccccc12`: the IC50 was determined as 590 nM.

On to `CC(=O)c1cccc2c(NC(=O)Nc3ccc4nccc(N5CCN(C)CC5)c4c3)cccc12`, for which the IC50 came out at 400 nM.

Turning to `Cc1csc(-c2ccc3[nH]cc(C4=CCN(C)CC4)c3c2)n1`, the concentration for half-maximal inhibition (IC50) was determined as 750 nM.

`COc1ccc(Nc2nccc(N3CCC(NC(=O)Nc4cccc(OC)c4)C3)n2)cc1` (configuration not stated) registered an IC50 of 420 nM.

`CS(=O)(=O)c1ccc2c(c1)CCN(CCC1CCC(NC(=O)C(=Cc3ccc(Cl)cc3Cl)c3ccc(-c4ccccc4)cc3)CC1)CC2` (configuration not stated): the half-inhibitory concentration (IC50) was determined as 1170 nM.

The compound `CCCCCN1CCCCC(NS(=O)(=O)c2ccc(C(=O)Nc3cccc(C(F)(F)F)c3)cc2)C1` (configuration not stated) had an IC50 of 750 nM.

Take `CN(C)CCOc1ccc(-c2cc(-c3ccc(Cl)c(O)c3)c(-c3ccncc3)o2)cc1`: the half-inhibitory concentration (IC50) came out at 1450 nM.

In the case of `c1ccc(-c2[nH]c3ccccc3c2CN2CCC(N3CCCCC3)CC2)nc1`, the 50% inhibitory concentration (IC50) came out at 1210 nM.

Consider `CS(=O)(=O)c1ccc(CCNCc2ccc(-c3ccc(CNC4Cc5ccccc5C4)cc3)nc2)cc1`, for which the IC50 amounted to 760 nM.

In turn, `Cn1nc(-c2ccc(NC(=O)Nc3cc(C(F)(F)F)ccc3F)c(F)c2)c2cnc(NCCCn3ccnc3)nc21` returned a half-maximal inhibitory concentration (IC50) of 740 nM.

Consider `OC(CNCc1ccccc1OCc1ccccc1)c1cc(C(F)(F)F)cc(C(F)(F)F)c1` (configuration not stated), for which the IC50 worked out at 130 nM.

As for `O=C(/C=C/c1ccc(Cl)cc1)NCCCCCN1CCCC(C(=O)Nc2ccc(Cl)cc2)C1` (configuration not stated), the IC50 came out at 1050 nM.

`CCn1c(-c2nonc2N)nc2c(-c3cccc(NC(=O)Nc4ccccc4Cl)c3)ncc(OCCCN)c21` registered an IC50 of 670 nM.

As to `CCCCCCC(C)(C)c1cc(O)c2c(c1)OC(C)(C)c1ccncc1-2`, the half-maximal inhibitory concentration (IC50) turned out to be 180 nM.

In turn, `Cn1nc(-c2cccc(CN[C@@H]3CCc4ccc(O)cc43)c2)c2cnc(NCCCN3CCCC3)nc21` registered an IC50 of 830 nM.

Turning to `CCOc1cc(C(=O)NC2CC(C)(C)NC(C)(C)C2)ccc1-c1nc2ccc(Cl)cc2[nH]1`, the 50% inhibitory concentration (IC50) was 990 nM.

Turning to `O=C(/C=C/c1ccc(Cl)c(Cl)c1)NCCCCCCN1CCN(C(=O)Nc2cccc(Cl)c2)CC1`, the IC50 stood at 980 nM.

`CCNC(=O)c1cc(S(=O)(=O)N2CCN(c3ccccn3)CC2)cs1` had an IC50 of 870 nM.

The compound `CCCC(=O)NC(c1ccc(C(C)C)cc1)c1ccc2cccnc2c1O` (configuration not stated) registered an IC50 of 930 nM.

Regarding `O=C(NCc1ccccc1)C1Cc2c([nH]c3ccc(Br)cc23)C2(CCN(Cc3ccccc3)CC2)N1` (configuration not stated), the IC50 is 870 nM.

`O=C(CSc1nc2ccc([N+](=O)[O-])cc2s1)Nc1ccccc1-c1ccccc1` displayed a half-inhibitory concentration (IC50) of 1170 nM.

`O=C(NC1CCCCC1)N(Cc1ccccc1-c1ccc(CNCCc2ccccc2)cc1)C1CCN(Cc2ccccc2)CC1`: the IC50 was 930 nM.

`CCOC(=O)c1cn(CC)c2cc(F)c(OC3C[C@@H]4CC[C@@]3(C)C4(C)C)cc2c1=O` (some centres not stated) displayed an IC50 of 930 nM.

Consider `Nc1c(-c2ccc(C(=O)NCCNCc3ccccc3)cc2)cnn1-c1ccc(C(F)(F)F)cc1`, for which the half-maximal inhibitory concentration (IC50) was determined as 1160 nM.

Regarding `Cc1cc(Nc2ccccc2)nc(Nc2ccccc2C)n1`, the 50% inhibitory concentration (IC50) is 1040 nM.

Take `Cc1ccccc1C1=CCN(CCCN2c3ccccc3Sc3ccc(Cl)cc32)CC1`: the concentration for half-maximal inhibition (IC50) turned out to be 870 nM.

For `COc1cc(OC)c(OC)cc1C=NNc1cc(C)nc2ccccc12`, the IC50 came out at 300 nM.

Take `COCCNC(=O)c1ccc(OC2CCN(CC(C)=Cc3ccccc3)CC2)c(Cl)c1`: the half-inhibitory concentration (IC50) is 650 nM.

In the case of `COc1ccc(NC(=O)N2CCCN(CCCCCNC(=O)/C=C/c3ccc(Cl)cc3)CC2)cc1Cl`, the IC50 was determined as 810 nM.

Turning to `CCN1CCC(N(Cc2ccc(-c3ccc(C(F)(F)F)cc3)cc2)C(=O)Cn2c(CCc3cccc(F)c3F)cc(=O)c3ccccc32)C1` (configuration not stated), the IC50 was found to be 1010 nM.

The compound `FC(F)(F)c1ccc2c(C=Cc3ccncc3)c[nH]c2c1` showed an IC50 of 710 nM.

Regarding `CCCCCCn1c(Sc2ccc(C#N)c([N+](=O)[O-])c2)nnc1-c1ccc(N(C)C)cc1`, the 50% inhibitory concentration (IC50) is 1070 nM.

With `O=C(/C=C/c1ccc(Br)cc1)NCCCCCN1CCC(c2c[nH]c3ccccc23)CC1`, the IC50 is 720 nM.

`O=C(NC(Cc1ccccc1)C(=O)O)c1cc(=O)c2ccccc2o1` (configuration not stated): the IC50 was 190 nM.

In the case of `CCC(CC)N1CCN(CC(=O)Nc2ccc([N+](=O)[O-])cc2C(=O)Nc2cccc(OC)c2)CC1`, the IC50 was determined as 870 nM.

In the case of `O=C(NC1CCN(c2ncc(C(F)(F)F)cc2Cl)CC1)c1cccs1`, the IC50 was determined as 900 nM.

Compound `O=C(NC1CC1)c1cnc(N2CCCC(c3ccccc3)C2)c(Cl)c1` (configuration not stated) displayed an IC50 of 800 nM.

Regarding `O=C(Nc1cccc(-c2ccc(CN3CCCC3)cc2)c1)c1ccc(F)cc1`, the 50% inhibitory concentration (IC50) is 1080 nM.

In turn, `Cc1cccc(C(=O)Nc2ccnc(N3CCC(N(C)Cc4cccc(C#N)c4)CC3)c2)c1` gave a concentration for half-maximal inhibition (IC50) of 1100 nM.

As to `CCc1cn2c3c(cc(C(=O)N[C@@H](Cc4cccc(Cl)c4)[C@H](O)CNC4CCCCC4)cc13)N(C)S(=O)(=O)CC2`, the IC50 came out at 60 nM.

With `CCCCN1C(=O)C(c2ccccc2)(c2ccccc2)N=C1N`, the half-inhibitory concentration (IC50) was determined as 1030 nM.

The compound `NCC1CCCN1Cc1ccc(-c2cccc(-c3nc4ccc(C(F)(F)F)cc4[nH]3)c2)cc1` (configuration not stated) yielded an IC50 of 830 nM.

For `O=C(Nc1ccc(F)cc1F)NC1CCN(c2ccnc3cc(Cl)ccc23)C1` (configuration not stated), the half-maximal inhibitory concentration (IC50) came out at 250 nM.

In turn, `COc1ccc2cc(-c3nc(-c4c(Cl)cccc4Cl)[nH]c3-c3ccnc(NCCCN4CCCCC4C)c3)ccc2c1` (configuration not stated) displayed a concentration for half-maximal inhibition (IC50) of 950 nM.

As for `O=c1cc(NCCCNC2CCCc3c2ccc2ccccc32)[nH]c2ccccc12` (configuration not stated), the IC50 turned out to be 820 nM.

In the case of `CN(c1cc(NC(=O)c2cccs2)ccn1)C1CCN(Cc2ccccc2)CC1`, the IC50 amounted to 1020 nM.

In turn, `O=C(Nc1cc(C(F)(F)F)ccc1N1CCOCC1)C(Cl)(Cl)Cl` registered a concentration for half-maximal inhibition (IC50) of 370 nM.

Compound `CC(C)CNCc1cccc(-c2ccc(CNC3CCN(Cc4ccccc4)CC3)cc2)c1` yielded a concentration for half-maximal inhibition (IC50) of 270 nM.

In turn, `COc1cc2c(cc1OC)C(C(=O)c1ccccc1)=NCC2` returned an IC50 of 1090 nM.

Take `COc1cc2nc(Nc3ccc4c(ccn4Cc4ccccc4)c3)nc(Nc3ccc4c(ccn4Cc4ccccc4)c3)c2cc1OC`: the 50% inhibitory concentration (IC50) came to 650 nM.

The compound `CCCCN=C(N)c1ccc(OCCCCCOc2ccc(C(N)=NCCCC)cc2)cc1` came in with an IC50 of 110 nM.
